Some test systems named below: RXF 393 renal; MCF7 breast; NCI/ADR-RES ovarian; HCT-15 colon; PC-3 prostate; OVCAR-4 ovarian; IGROV1 ovarian; OVCAR-3 ovarian; MALME-3M melanoma; UACC-62 melanoma; HCT-116 colon; K-562 leukemia; SR leukemia; MDA-MB-435; MOLT-4 leukemia; NCI-H226 lung; TK-10 renal; SK-MEL-2 melanoma; SK-MEL-28 melanoma.
Experiment in all cases: DTP human tumour cell line panel, 48 h

For orientation: TGI means the concentration giving total growth inhibition.

Molecules are shown by their SMILES.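 Step 1: Grow cells in 96-well plates. Step 2: Expose to compound for 48 hours at 5 concentrations. Step 3: Interpolate endpoints linearly; if unreached, use highest concentration. Definition used: TGI = concentration required for complete inhibition of growth.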 Some results are limits rather than exact numbers.

With `CC(=O)OCc1ccc2oc(=O)c(C(=O)Oc3ccccc3)cc2c1`, the TGI is greater than 100 µM in the test with RXF 393 renal; greater than 100 µM with MCF7 breast; greater than 100 µM in the test with NCI/ADR-RES ovarian; 50 µM in the test with HCT-15 colon; 34.5 µM in the test on PC-3 prostate; greater than 100 µM in the test with OVCAR-4 ovarian. Moreover, the TGI in the test with IGROV1 ovarian was greater than 100 µM; with OVCAR-3 ovarian it was greater than 100 µM; with MALME-3M melanoma it was greater than 100 µM; with UACC-62 melanoma, 38.6 µM; in the test on HCT-116 colon, 30.6 µM; in the test on K-562 leukemia, 30 µM. For the same compound, the TGI is greater than 100 µM with SR leukemia; greater than 100 µM in the test with MDA-MB-435; greater than 100 µM in the test with MOLT-4 leukemia; greater than 100 µM in the test on NCI-H226 lung; 62.8 µM with TK-10 renal; greater than 100 µM in the test with SK-MEL-2 melanoma. The compound further gave a TGI in the test on SK-MEL-28 melanoma greater than 100 µM.

On to `Cc1ccc(S(=O)(=O)NNCNC(=O)c2ccccc2)cc1`, for which the TGI in the test on RXF 393 renal, in the test with MCF7 breast, in the test on NCI/ADR-RES ovarian, in the test with HCT-15 colon, in the test on PC-3 prostate and with OVCAR-4 ovarian was greater than 100 µM in each case. The concentration for total growth inhibition (TGI) with IGROV1 ovarian, in the test on OVCAR-3 ovarian, with MALME-3M melanoma, with UACC-62 melanoma, in the test with HCT-116 colon and in the test on K-562 leukemia was greater than 100 µM throughout. Also, the TGI in the test with SR leukemia is 33.1 µM; with MDA-MB-435, greater than 100 µM; in the test with MOLT-4 leukemia it was greater than 100 µM; with NCI-H226 lung, greater than 100 µM; with TK-10 renal, greater than 100 µM; in the test on SK-MEL-2 melanoma, greater than 100 µM. The TGI with SK-MEL-28 melanoma was greater than 100 µM.

Take `CCCCn1c2c(n(CCCC)c1=S)-c1c(n(CCCC)c(=S)n1CCCC)SSc1c(n(CCCC)c(=S)n1CCCC)-c1c(n(CCCC)c(=S)n1CCCC)SSc1c(n(CCCC)c(=S)n1CCCC)-c1c(n(CCCC)c(=S)n1CCCC)SS2`: the TGI in the test on RXF 393 renal was greater than 50 µM; in the test with MCF7 breast it was 48 µM; with NCI/ADR-RES ovarian, greater than 50 µM; with HCT-15 colon, 30.4 µM; in the test with PC-3 prostate, 18.9 µM; in the test on OVCAR-4 ovarian, greater than 19.7 µM. Besides, the TGI in the test with IGROV1 ovarian is 8.64 µM; with OVCAR-3 ovarian, 14.6 µM; with MALME-3M melanoma, 6.19 µM; in the test with UACC-62 melanoma it was 20.3 µM; in the test with HCT-116 colon, greater than 27.7 µM; in the test on K-562 leukemia it was greater than 50 µM. The TGI was greater than 50 µM in the test with SR leukemia; greater than 42.1 µM in the test with MDA-MB-435; greater than 50 µM in the test on MOLT-4 leukemia; greater than 38.4 µM with NCI-H226 lung; greater than 50 µM in the test with TK-10 renal; 29.3 µM in the test on SK-MEL-2 melanoma. In the test with SK-MEL-28 melanoma, this compound yielded a total growth inhibition concentration (TGI) greater than 50 µM.

Turning to `O=C1Oc2cc(O)cc(/C=C/c3ccc(O)cc3)c2[C@@]12c1c(O)cc(O)cc1OC2c1cccc(O)c1` (stereo partly drawn), the TGI was 94.3 µM with RXF 393 renal; greater than 100 µM in the test on MCF7 breast; greater than 100 µM in the test with NCI/ADR-RES ovarian; greater than 100 µM in the test with HCT-15 colon; greater than 100 µM in the test with PC-3 prostate; greater than 100 µM in the test on OVCAR-4 ovarian. For the same compound, the TGI in the test on IGROV1 ovarian is 31 µM; with OVCAR-3 ovarian it was greater than 100 µM; with MALME-3M melanoma, greater than 100 µM; with UACC-62 melanoma, 68 µM; with HCT-116 colon, greater than 100 µM; in the test with K-562 leukemia, greater than 100 µM. The concentration for total growth inhibition (TGI) in the test with SR leukemia was greater than 100 µM; with MDA-MB-435 it was 66.1 µM; in the test with MOLT-4 leukemia, greater than 100 µM; in the test with NCI-H226 lung it was 93.2 µM; in the test on TK-10 renal, greater than 100 µM; in the test on SK-MEL-2 melanoma it was 54.8 µM. Moreover, the TGI in the test with SK-MEL-28 melanoma was greater than 100 µM.

`NC(N)=Nc1ccc(CC(N)C(=O)O)cc1` (stereo not drawn): the TGI in the test on RXF 393 renal, in the test with MCF7 breast, with NCI/ADR-RES ovarian, in the test with HCT-15 colon, in the test on PC-3 prostate and in the test on OVCAR-4 ovarian was greater than 12.5 µM in each case. Moreover, the TGI in the test on IGROV1 ovarian, in the test with OVCAR-3 ovarian, in the test on MALME-3M melanoma, with UACC-62 melanoma, with HCT-116 colon and with K-562 leukemia was greater than 12.5 µM throughout. The TGI with SR leukemia, in the test with MDA-MB-435, with MOLT-4 leukemia, in the test on NCI-H226 lung, in the test on TK-10 renal and with SK-MEL-2 melanoma was greater than 12.5 µM each time. In the test with SK-MEL-28 melanoma, this compound returned a TGI greater than 12.5 µM.

With `CO/N=C(\C)c1cccc(Nc2c3ccccc3nc3occc23)c1`, the TGI with RXF 393 renal was 5.87 µM; with MCF7 breast, 28.6 µM; in the test with NCI/ADR-RES ovarian it was 15.6 µM; in the test on HCT-15 colon, 50.4 µM; in the test with PC-3 prostate it was greater than 100 µM; in the test on OVCAR-4 ovarian it was 18 µM. Moreover, the TGI in the test with IGROV1 ovarian was 19.4 µM; with OVCAR-3 ovarian, 19 µM; in the test with MALME-3M melanoma, 34.5 µM; in the test with UACC-62 melanoma, 22.5 µM; in the test on HCT-116 colon it was 21.2 µM; in the test on K-562 leukemia it was greater than 100 µM. For the same compound, the TGI worked out at 16.4 µM in the test on SR leukemia; 6 µM in the test on MDA-MB-435; 37.9 µM with MOLT-4 leukemia; 33.7 µM in the test with NCI-H226 lung; 48.8 µM in the test on TK-10 renal; 15.5 µM with SK-MEL-2 melanoma. Besides, the TGI in the test on SK-MEL-28 melanoma was determined as 16.5 µM.

On to `CCOC(=O)C(SCCO)C(C(=O)OCC)n1ccc(=O)[nH]c1=O` (stereo not drawn), for which the TGI with RXF 393 renal was 81.4 µM; in the test on MCF7 breast, greater than 62.1 µM; in the test with NCI/ADR-RES ovarian, greater than 69.4 µM; in the test on HCT-15 colon it was greater than 57.5 µM; with PC-3 prostate, greater than 100 µM; in the test on OVCAR-4 ovarian, greater than 86.5 µM. For the same compound, the TGI in the test on IGROV1 ovarian is greater than 95 µM; with OVCAR-3 ovarian, 72.7 µM; with MALME-3M melanoma, 32.9 µM; in the test with UACC-62 melanoma, 67.3 µM; in the test on HCT-116 colon it was greater than 57.4 µM; in the test on K-562 leukemia, 36.1 µM. Also, the TGI in the test with SR leukemia is 34 µM; in the test with MDA-MB-435, greater than 58.5 µM; in the test on MOLT-4 leukemia, 21.7 µM; in the test on NCI-H226 lung, greater than 61.2 µM; with TK-10 renal, greater than 100 µM; in the test on SK-MEL-2 melanoma, greater than 79.8 µM. This compound had a TGI in the test with SK-MEL-28 melanoma greater than 86.7 µM.
